# Assay results reported in patent US20080317728A1, “Lowering Uric Acid to Prevent or Accelerate Recovery of Acute Renal Failure” (UNIVERSITY OF FLORIDA RESEARCH FOUNDATION, INC., priority 2004, published 2008).
# Several values for one entry are separate records, joined by “and”; a condition that tells them apart may be missing. Equal entries are not always repeated.
# Key:
# [1] = test system: normal rats on normal sodium diet; assay: Hyperuricemia in normal rats on normal sodium diet: serum uric acid, systolic blood pressure, body weight; format: in vivo, Sprague-Dawley rats
# Procedure: (§1) Experimental Design: All animal procedures were approved by the Animal Care Committee. Male 300-350 g Sprague-Dawley rats were used in all experiments.
# (§2) Hyperuricemia in normal rats on normal sodium diet: To produce hyperuricemia, rats were administered oxonic acid (OA) (Sigma, St Louis Mo., USA) 750 mg/kg body weight by gastric gavage. To prevent the rise of serum uric acid induced by OA, allopurinol (AP) (Sigma, St Louis Mo., USA) was administered in drinking water (150 mg/L). We studied the following groups: Control (n=8); OA (n=7) and OA plus allopurinol (n=9). Systolic blood pressure and serum uric acid were measured at baseline and after 30-33 days of follow-up. Micropuncture studies were performed at 5 weeks.
# (§3) Evaluation: In all studies, systolic blood pressure (SBP) was measured by tail cuff sphyngomanometer using an automated system (Narco Biosystems, Houston Tex., USA). All animals were preconditioned for blood pressure measurements 1 week before each experiment. Proteinuria was determined by turbidimetry by the method of trichloroacetic acid (Henry R J, Sobel Ch, Segalove M: Turbidimetric determination of proteins with sulfosalicylic and trichloroacetic acids. Proc Soc Exp Biol Med 92:748-751, 1956). Serum uric acid was measured by colorimetric phosphotungstic acid method using a commercial kit (Wiener Lab, Argentina).
# (§4) Statistical analysis. Values are expressed as mean±standard error (SE). Differences between groups were evaluated by ANOVA with appropriate correction for multiple comparisons (Bonferroni). The relation between variables was assessed by correlation analysis.
# [2] = test system: normal rats on normal sodium diet; assay: Micropuncture (glomerular hemodynamics) in normal rats on normal sodium diet; format: in vivo, Sprague-Dawley rats
# Procedure: as §1, §2
# (§5) Micropuncture: Animals were anesthetized with pentobarbital sodium (30 mg/kg ip) and placed on a thermoregulated table to maintain body temperature at 37° C. Trachea, jugular veins, femoral arteries, and the left ureter were catheterized with polyethylene tubing (PE-240, PE-50, and PE-10). The left kidney was exposed, placed in a Lucite holder, sealed with agar, and covered with Ringer's solution. Mean arterial pressure (MAP) was monitored with a pressure transducer (Model p23 db; Gould, San Juan, PR) and recorded on a polygraph (Grass Instruments, Quincy, Mass., USA). Blood samples were taken periodically and replaced with blood from a donor rat. Rats were maintained under euvolemic conditions by infusion of 10 ml/kg of body weight of isotonic rat plasma during surgery, followed by an infusion of 25% polyfructosan, at 2.2 ml/h (Inutest, Laevosan-Gesellschaft, Linz, Austria). After 60 min, five to six 3-min collection samples of proximal tubular fluid were obtained to determine flow rate and polyfructosan concentration. Intratubular pressure under free-flow and stop-flow conditions and peritubular capillary pressure were measured in other proximal tubules with a servo-null device (Servo Nulling Pressure System; Instrumentation for Physiology and Medicine, San Diego, Calif., USA). Polyfructosan was measured in plasma samples. Glomerular colloid osmotic pressure was estimated in protein from blood of the femoral artery (Ca) and surface efferent arterioles (Ce). Polyfructosan concentrations were determined by the technique of Davidson and Sackner (Davidson W D, Sackner Mass.: Simplification of the Antrhone Method for the Determination of Inulin in Clearance Studies. J. Lab Clin. Med. 62:351-356, 1963). The volume of fluid collected from individual proximal tubules was estimated from the length of the fluid column in a constant bore capillary tube of known internal diameter. Concentration of tubular polyfructosan was measured by the method of Vurek and Pegram (Vurek G G, Pegram S E: Fluorometric method for the determination of nanogram quantities of inulin. Ann. Biochem 16:409-419, 1966). Protein concentration in afferent and efferent samples was determined according to the method of Viets et al. (Viets J W, Deen W M, Troy J L, Brenner B M: Determination of serum protein concentration in nanoliter blood samples using fluorescamine or 9-phthalaldehyde. Anal. Biochem 88:513-521, 1978). MAP, GFR, single-nephron GFR (SNGFR), glomerular capillary hydrostatic pressure (Pgc), single-nephron plasma flow (QA), afferent (RA) and efferent (RE) resistances, and Kf, were calculated according to equations given elsewhere (Baylis C, Deen W M, Myers B D, Brenner B M: Effects of some vasodilator drugs on transcapillary fluid exchange in renal cortex. Am. J. Physiol 230:1148-1158, 1976).
# as §4
# [3] = test system: normal rats on normal sodium diet; assay: Renal histology, afferent arteriole morphology in normal rats; format: in vivo, Sprague-Dawley rats
# Procedure: as §2
# (§6) Renal Histology: After the micropuncture study kidneys and remnant kidneys were washed by perfusion with PBS and then fixed with 4% paraformaldehyde. Renal biopsies were embedded in paraffin. Four μm sections of fixed tissue were stained with periodic acid Schiff (PAS) reagent. Arteriolar morphology was assessed by indirect peroxidase immunostaining for alpha-smooth muscle actin (DAIO Corp. Carpinteria, Calif., USA). In addition in remnant kidney rats glomerulosclerosis and fibrosis was assessed with Masson's trichrome stain and tubulointerstitial lymphocytes were assessed by indirect immunoperoxidase immunostaining for anti-CD-5.
# Quantification of morphology: Quantifications were performed blinded. […] The media/lumen ratio was calculated by the outline/inline relationship.
# [4] = test system: remnant kidney rats (5/6 nephrectomy); assay: Hyperuricemia in remnant kidney rats: serum uric acid, systolic blood pressure, proteinuria, body weight; format: in vivo, Sprague-Dawley rats
# Procedure: as §1
# (§7) Hyperuricemia in remnant kidney rats on normal sodium diet: Under light anesthesia with ether, 5/6 nephrectomy was performed by removal of the right kidney and selective ligation of 2-3 branches of left renal artery. To induce hyperuricemia rats were given OA (750 mg/kg) by gastric gavage starting the day after the renal ablation. To prevent hyperuricemia AP was administered in the drinking water (150 mg/L). The following groups were studied: 5/6 Nx (n=10); 5/6 Nx+OA (n=12) and 5/6 Nx+OA+AP (n=13). Systolic blood pressure, proteinuria and serum uric acid were measured at baseline and after 25-28 days of follow-up. Micropuncture studies were performed at 4 weeks.
# as §3, §4
# [5] = test system: remnant kidney rats (5/6 nephrectomy); assay: Micropuncture (glomerular hemodynamics) in remnant kidney rats; format: in vivo, Sprague-Dawley rats; parameters: SNGFR lower than RK control group / glomerular plasma flow lower than RK control group / Kf lower than RK control group / afferent resistance higher compared to RK control / efferent resistance higher compared to RK control: concentration or dose not given beside the values
# Procedure: as §1, §7, §5, §4
# [6] = test system: remnant kidney rats (5/6 nephrectomy); assay: Renal histology in remnant kidney rats; format: in vivo, Sprague-Dawley rats; details: mean±SE
# Procedure: as §7, §6
# Quantification of morphology: Quantifications were performed blinded. Arteriolopathy of afferent arterioles was evaluated as previously described (Sanchez-Lozada L G, Tapia E, Avila-Casado C, Soto V, Franco M, Santamaria J, Nakagawa T, Rodriguez-Iturbe B, Johnson R J, Herrera-Acosta J: Mild hyperuricemia induces glomerular hypertension in normal rats. Am. J. Physiol Renal Physiol 283:F1105-F1110, 2002). In brief, only vessels adjacent to glomeruli were selected. For each arteriole, the outline of the vessel and its internal lumen (excluding the endothelium) was generated using computer analysis to calculate the total medial area (outline-inline), in 10 arterioles per biopsy. The media/lumen ratio was calculated by the outline/inline relationship.
# Glomerulosclerosis was evaluated in Masson's trichrome stained sections. The degree of sclerosis was scored as follows: in each biopsy the numbers of glomeruli with segmental, mesangial and global sclerosis as well as normal glomerular tufts were assessed. The resulting index in each animal was expressed as the percent of sclerosed glomeruli.
# Tubulointerstitial fibrosis analysis was performed by a pathologist unaware of the origin of each kidney section. Evaluation was performed using slides stained with Masson's trichrome. Five noncrossed fields ([…], enlarged ×40) per biopsy were analyzed, using light microscopy (Olympus B-51. Olympus American, Melville, N.Y.) and captured with a digital video camera (CoolSnap Pro, Media Cybernetics Silver Spring, Md.). Each picture was processed on a computer and analyzed using Image-Pro and Photoshop 7 (Adobe Systems, SanJose, Calif.). Using the capabilities of color recognition by this software, a blue color was selected for positive areas. After selection, these areas were quantified (pixel unit) using the histogram function of the software. For each field, the number of positive areas was expressed as a fraction of the tubulointerstitial area (positive areas divided by the overall field area). Finally, for each biopsy, the mean fractional amount of positive areas was obtained by averaging the values obtained from 5 fields examined. […]
# Male Sprague-Dawley rats = assay: Hyperuricemia and serum nitrites/nitrates (NOx) in rats, Example 2; format: in vivo; details: for serum uric acid: OA 750 mg/kg/day gavage, AP 150 mg/L drinking water; for Serum nitrites and nitrates (NOx): chemiluminescence
# Procedure: Male Sprague-Dawley rats were housed in standard conditions and fed normal diets. We induced hyperuricemia with an uricase inhibitor, oxonic acid (OA; 750 mg/kg/day), by gavage, with control rats receiving vehicle. Allopurinol (AP) was used to block hyperuricemia by placing AP in the drinking water (150 mg/L). Rats were divided into four groups: (1) Control, (2) AP only, (3) OA only, and (4) OA+AP. Systolic blood pressure was measured using a tail-cuff sphygmomanometer. The amount of drinking water consumed and changes in body weight were noted. Rats were sacrificed at one and seven days. Serum was analyzed for uric acid concentration and nitrites/nitrates (NOx) by chemiluminescence method. (Prabhakar SS: Inhibition of mesangial iNOS by reduced extracellular pH is associated with uncoupling of NADPH oxidation. Kidney Int 61:2015-2024, 2002). Statistical analysis between subgroups was performed using ANOVA.
# [7] = micropuncture at 5 weeks, mean±SE
# [8] = micropuncture at 4 weeks, mean±SE
smiles,measurement,setting,value
"O=C(O)c1nc(=O)[nH]c(=O)[nH]1 [OA, oxonic acid]",SUA (serum uric acid),"[1]; normal salt diet, OA 750 mg/kg gavage, AP 150 mg/L drinking water, 30-33 days, mean±SE",5.4 ± 0.2 mg/dL
same,SBP (systolic blood pressure),"[1]; normal salt diet, tail cuff, 30-33 days, mean±SE",134 ± 3 mmHg
same,increment of serum uric acid,[1]; vs control,two-fold
same,afferent resistance higher,[2]; hyperuricemic vs control,45%
same,decrease of SNGFR,[2]; hyperuricemic vs control,35%
same,efferent resistance higher,[2]; hyperuricemic vs control,64%
same,GFR,[2]; [7],0.71 ± 0.1 mL/min
same,KF (ultrafiltration coefficient),[2]; [7],0.027 ± 0.002 nl/s/mmHg
same,MAP (mean arterial pressure),[2]; [7],131 ± 4 mmHg
same,PGC (glomerular capillary hydrostatic pressure),[2]; [7],56 ± 2 mmHg
same,QA (single-nephron plasma flow),[2]; [7],66.1 ± 7.2 nL/min
same,RA (afferent resistance),[2]; [7],4.82 ± 0.67 dyn/s/cm^−5
same,RE (efferent resistance),[2]; [7],2.83 ± 0.19 dyn/s/cm^−5
same,SNGFR (single-nephron GFR),[2]; [7],17.8 ± 2 nL/min
same,AA M/L (afferent arteriole media/lumen ratio),"[3]; after micropuncture, mean±SE",5.1 ± 0.6
same,Uprot (proteinuria),"[4]; 25-28 days, mean±SE",246 ± 29 mg/day
same,SUA (serum uric acid),"[4]; OA 750 mg/kg gavage, AP 150 mg/L drinking water, 25-28 days, mean±SE",4.5 ± 0.4 mg/dL
same,SBP (systolic blood pressure),"[4]; tail cuff, 25-28 days, mean±SE",191 ± 10 mmHg
same,additional rise of proteinuria,[4]; vs RK control,two fold
same,further increase of SBP,[4]; vs RK control,30 mmHg
same,increase of serum uric acid,[4]; vs RK control,two fold
same,Kf lower than RK control group,[5],50%
same,SNGFR lower than RK control group,[5],40%
same,afferent resistance higher compared to RK control,[5],120%
same,efferent resistance higher compared to RK control,[5],80%
same,glomerular plasma flow lower than RK control group,[5],40%
same,GFR,[5]; [8],0.4 ± 0.1 mL/min
same,KF (ultrafiltration coefficient),[5]; [8],0.02 nl/s/mmHg and 0.024 ± 0.003 nl/s/mmHg
same,MAP (mean arterial pressure),[5]; [8],184 ± 6 mmHg
same,PGC (glomerular capillary pressure),[5]; [8],62 mmHg and 62 ± 1 mmHg
same,QA (glomerular plasma flow),[5]; [8],147 nL/min and 146.5 ± 20.4 nL/min
same,RA (afferent resistance),[5]; [8],4.6 dyn/s/cm^−5 and 4.55 ± 0.66 dyn/s/cm^−5
same,RE (efferent resistance),[5]; [8],1.8 dyn/s/cm^−5 and 1.83 ± 022 dyn/s/cm^−5
same,SNGFR (single-nephron GFR),[5]; [8],40.6 nL/min and 40.7 ± 6.0 nL/min
same,Glomerulosclerosis,[6]; Masson's trichrome,0.33 ± 0.07%
same,TI Fibrosis,[6]; Masson's trichrome,780.2 ± 55.0 arbitrary units
same,TI CD5 + (tubulointerstitial infiltration of CD5 positive cells),[6]; immunoperoxidase,26.1 cells/mm^2 and 26.1 ± 2.99 cells/mm^2
same,AA M/L (afferent arteriole media to lumen ratio),[6],6.4 ± 0.37
same,AA M/L (afferent arteriole media to lumen ratio),[6]; listed as Oxonic acid,6.4
same,reduction of serum NOx vs control,Male Sprague-Dawley rats; hyperuricemic rats at both 1 day and 7 days,40-50%
same,serum uric acid,"Male Sprague-Dawley rats; rats, 1 day",1.7 ± 0.7 mg/dL
same,Serum nitrites and nitrates (NOx),"Male Sprague-Dawley rats; rats, 1 day",15.6 ± 0.4 µmol/L
same,serum uric acid,"Male Sprague-Dawley rats; rats, 7 days",1.8 ± 0.4 mg/dL
same,Serum nitrites and nitrates (NOx),"Male Sprague-Dawley rats; rats, 7 days",14.6 ± 1.1 µmol/L
same,systolic blood pressure,"Male Sprague-Dawley rats; rats, 7 days, tail cuff",178±18 mm Hg
"Oc1ncnc2[nH]ncc12 [AP, allopurinol]",effect on the hypertension induced by oxonic acid,[1]; concurrent with oxonic acid,prevented
same,effect on the increase of serum uric acid induced by oxonic acid,[1]; concurrent with oxonic acid,prevented
same,effect on glomerular hemodynamic alterations of hyperuricemia,[2]; concomitant with oxonic acid,prevented these alterations
same,effect on thickening of afferent arterioles,[3]; with oxonic acid,prevented
same,effect on SBP,[4]; concomitant with oxonic acid,only a marginal effect
same,effect on hyperuricemia,[4]; concomitant with oxonic acid,prevented
same,effect on proteinuria,[4]; concomitant with oxonic acid,prevented
same,"PGC, in words","[5]; AP with oxonic acid, in the presence of systemic hypertension",normal and significantly lower than RK hyperuricemic rats
same,SNGFR (single-nephron GFR),[5]; [8],53 nL/min
same,AA M/L (afferent arteriole media to lumen ratio),[6],1.8
same,change in NOx concentration,Male Sprague-Dawley rats; rats treated with AP alone,did not show a significant change
same,change in serum UA concentration,Male Sprague-Dawley rats; rats treated with AP alone,did not show a significant change
same,serum uric acid,"Male Sprague-Dawley rats; rats, 1 day",1.52 ± 0.3 mg/dL
same,Serum nitrites and nitrates (NOx),"Male Sprague-Dawley rats; rats, 1 day",17.4 ± 0.8 µmol/L
same,serum uric acid,"Male Sprague-Dawley rats; rats, 7 days",0.3 ± 0.2 mg/dL
same,Serum nitrites and nitrates (NOx),"Male Sprague-Dawley rats; rats, 7 days",25.0 ± 0.8 µmol/L
